In one series the target is T1, Adenosylhomocysteinase (Rattus norvegicus, UniProt P10760).
T1 sequence (P10760 whole entry): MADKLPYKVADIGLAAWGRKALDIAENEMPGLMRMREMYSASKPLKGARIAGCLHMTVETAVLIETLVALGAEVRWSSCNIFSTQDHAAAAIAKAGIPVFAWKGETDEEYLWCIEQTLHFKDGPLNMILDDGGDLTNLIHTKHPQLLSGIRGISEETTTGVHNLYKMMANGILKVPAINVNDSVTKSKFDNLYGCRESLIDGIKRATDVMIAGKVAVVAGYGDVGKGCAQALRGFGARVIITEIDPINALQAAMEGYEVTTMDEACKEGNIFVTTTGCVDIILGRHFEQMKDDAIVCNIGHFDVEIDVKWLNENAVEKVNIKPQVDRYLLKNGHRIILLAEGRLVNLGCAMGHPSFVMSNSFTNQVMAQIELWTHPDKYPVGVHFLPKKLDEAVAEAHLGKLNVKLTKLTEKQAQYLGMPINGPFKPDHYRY
Briefly: Inhibitory constant against rat liver S-adenosyl-L-homocysteine hydrolase.

Series [1] deals with T2, Adenosylhomocysteinase (Rattus norvegicus) (UniProt P10760).
T2 sequence (whole entry): T1 sequence (P10760 whole entry)
Briefly: Inhibitory activity against rat liver S-adenosyl-L-homocysteine hydrolase.

Substrate in series [2]: Nc1ncnc2c1ncn2C1O[C@](F)(CO)[C@@H](O)[C@H]1O
In words: Michaelis constant towards rat liver S-adenosyl-L-homocysteine hydrolase was calculated.

For `Nc1ncnc2c1ncn2C1O[C@](F)(CO)[C@@H](O)[C@H]1O` (stereo partly drawn), on Adenosylhomocysteinase, the Ki (usually the dissociation constant of the complex between target and ligand, obtained from inhibition or displacement) came out at 166 µM. Besides, the kinact (commonly the maximal first-order rate at which the target is inactivated) in series [1] was determined as 0.24 min⁻¹.

B1: Adenosylhomocysteinase (Rattus norvegicus), P10760 (protein)
chain: T1 sequence (P10760 whole entry)
For B1, the Km – broadly, the concentration of substrate that gives half-maximal velocity – in series [2] is 1 µM.
